In US8084592B2, “Multivalent entrain-and-amplify immunotherapeutics for carcinoma” (MannKind Corporation, priority 2005, dated 2011):
“Also recorded” adds a separate entry of the source. Non-standard residues stand in square brackets, D forms with d. No end group written: not given here. Nle = CCCC[C@H](N)C(=O)O; Nva = CCC[C@H](N)C(=O)O

Experiments:
[1] = system: T cells that recognized native PSMA288-297 peptide; assay: Cross-reactive immunogenicity of PSMA288-297 analogs, IFN-γ ELISPOT; type: in vivo, HHD transgenic mice; conditions: 25 μg peptide + 12.5 μg pI:C per lymph node, day 0, 3, 14, 17
Description: Groups of HHD transgenic mice (n=8) were immunized with peptide (natural epitope PSMA288-297, or analogs bearing substitutions at primary or secondary anchor residues) by direct inoculation into the inguinal lymph nodes, with 25 μg in […]+12.5 μg of pI:C to each lymph node at day 0, 3, 14 and 17.
Mice were sacrificed at 10 days after the last boost, and splenocytes prepared and assessed for IFN-γ production by ELISPOT analysis. Various numbers of splenocytes/well were stimulated with 10 μg/ml of native peptide in ELISPOT plates coated with anti-IFN-γ antibody. At 48 hours after incubation, the assay was developed and the frequency of cytokine-producing T cells that recognized native PSMA288-297 peptide was automatically counted. The data is represented in FIG. 15 as the number of spot forming colonies/well (mean of triplicates+SD).

[2] = system: T cell line specific for the native epitope; assay: Cross-reactivity of PSMA288-297 analogs: IFN-gamma secretion from T cell line; type: cell-based, HHD transgenic mice; conditions: stimulating with 10 μg/ml of analog (approximately 10 μM)
Source text: A methodology was devised to allow rapid and rational screening of peptide analogs in a fashion coherent with proposed methods of use and modeling the overall immunologic properties (Kon and Koff relative to MHC interaction and TCR binding properties in an integrated fashion). In some instances, the method included generating T cell lines against a natural (non-mutated) epitope (SSX-241-49), and using an immunization strategy potent enough to generate a useful response in transgenic mice carrying human MHC (such as the A2 allele). Peptide analogs were interrogated ex vivo in the presence of competent APCs and the functional impact of T cells specific for natural (non-mutated) epitopes measured. The evaluation was done at various concentrations of analog, because the expected effect was biphasic in the case of cross reactive peptides (activating at limited concentrations and inhibiting at higher concentrations, due to antigen-induced cell death, AICD). Measurement of the following three parameters were used to define basic and useful characteristics of peptide analogs: • 1. […]
(§1) The method used for the generation of T cell lines was the following: HHD transgenic mice carrying an A2 human allele (Pascolo et al., J. Exp Med. 185(12):2043-51, 1997, which is hereby incorporated herein by reference in its entirety) were immunized with 50 μg of SSX-2 natural epitope (41-49) admixed with 25 μg of plpC at day 0, 4, 14 and 18 by bilateral administration into the inguinal lymph nodes. […] The supernatant was harvested and the concentration of IFN-gamma assessed by standard methods such as ELISA.
Using the procedures described in application Ser. Nos. 11/455,278 and 11/454,633, each of which is hereby incorporated by reference in its entirety, the binding characteristics of PSMA288-297 and analogs were assessed in comparison to each other see (see FIG. 12). […] Cross reactivity with the native epitope was assessed by using the analog peptides to stimulate IFN-gamma secretion from a T cell line specific for the native epitope, essentially as described in Example 12. […]

MHC class I (A2.1) = MHC class I (A2.1) (Homo sapiens, UniProt P04439, D140Y/D185E/D98H/E176V/E277Q/G131W/G231S/I119V/I121R/I166T/I218V/L300P/L318F/N151K/N90K/P208A/P217A/Q86G/Q94H/R138H/R169H/T345S); assay: Binding characteristics (affinity, stability) of PSMA288-297 and analogs
HLA-A*0201 = HLA-A*0201 (Homo sapiens, UniProt P04439, D140Y/D185E/D98H/E176V/E277Q/G131W/G231S/I119V/I121R/I166T/I218V/L300P/L318F/N151K/N90K/P208A/P217A/Q86G/Q94H/R138H/R169H/T345S); assay: HLA-A*0201 binding characteristics of PRAME425-433 and analogs
Description: The positive control for binding was melan-A26-35 A27L. […] Cross reactivity with the native epitope was assessed by using the analog peptides to stimulate IFN-gamma secretion from a T cell line specific for the native epitope, essentially as described in Example 12. The data shown in FIGS. 16-18 were generated by stimulating with analog peptide at approximately 0.3 μM. […] In some cases, the reported values are the average of two determinations.

[3] = system: T cell line specific for the native epitope; assay: Cross-reactivity of PRAME425-433 analogs: IFN-gamma secretion from T cell line; type: cell-based, HHD transgenic mice; conditions: analog peptide at approximately 0.3 μM, normalized to native peptide
Source text: A methodology was devised to allow rapid and rational screening of peptide analogs in a fashion coherent with proposed methods of use and modeling the overall immunologic properties (Kon and Koff relative to MHC interaction and TCR binding properties in an integrated fashion). In some instances, the method included generating T cell lines against a natural (non-mutated) epitope (SSX-241-49), and using an immunization strategy potent enough to generate a useful response in transgenic mice carrying human MHC (such as the A2 allele). Peptide analogs were interrogated ex vivo in the presence of competent APCs and the functional impact of T cells specific for natural (non-mutated) epitopes measured. […]
as §1, with “ELISA. […]” for “ELISA.”

[4] = system: splenocytes responding to the PRAME425-433 peptide; assay: Cross-reactive immunogenicity of PRAME analog, IFN-γ ELISA of splenocytes; type: in vivo, HHD transgenic mice; conditions: pCTLR2 plasmid prime, peptide boost 2.5 μg day 28 and 31, versus native peptide boost
Description: This was followed by two peptide boosts (2.5 μg) at day 28 and 31, of native peptide or the PRAME epitope analog L426Nva L433Nle.
Mice were sacrificed at 10 days after the last boost, and splenocytes prepared and assessed for IFN-γ production after in vitro stimulation at 0.5×10^6 cells/well, with 10 μg/ml of native peptide.

Row | Substance | immunogenicity against the native epitope [1] | IFN-gamma production (cross-reactivity) compared to native peptide [2] | IFN-γ production (cross-reactivity) compared to native peptide [3] | further results
1 | PSMA288-297 P1 Abu: PSMA288-297 analog, Abu at P1 | slightly higher (but significant) activity than the native peptide | marginally similar cross-reactivity |  | 
2 | GLPSIPVHPV [PSMA288-297 I297V] | increased priming of immune responses against the native epitope | increased the amount of IFN-gamma produced |  | 
3 | GLPSIPVHPI (homo sapien) [PSMA288-297, reference compound] | poorly immunogenic; also recorded: poor immunogenicity |  |  | binding characteristics (MHC class I (A2.1)): generally superior binding characteristics
4 | SNvaLQHLIGNle (S[Nva]LQHLIG[Nle]) [L426Nva L433Nle] |  |  | significant level of cross-reactivity | binding characteristics (affinity and stability) (HLA-A*0201): similar, somewhat improved binding characteristics; IFN-γ production in response to the PRAME425-433 peptide (ELISA) [4]: significant enhancement of IFN-γ production
5 | PSMA288-297 PO Nva: PSMA288-297 analog, Nva at PO | slightly higher (but significant) activity than the native peptide | increased the amount of IFN-gamma produced |  | stability of binding (half-time of dissociation) compared to native peptide (MHC class I (A2.1)): improved the stability of binding
6 | PRAME425-433 C-terminal amide: PRAME425-433 with carboxy-terminus modified by the addition of an amide group (SLLQHLIGL-NH2) |  |  | within twofold of the native peptide | 
